Results from patent US20060004102A1, “Polymorphic forms of nateglinide” (priority 2004, published 2006).
Structures can show the parent of a compound that is named as a salt. Where two headings read alike, the source gives them in different places.

Legend:
[1] = Solubility of nateglinide in solvents; assay type: physicochemical; conditions: mixture of methanol, water and a base (source of ammonium ions)
[2] = cited from earlier work
[3] = DSC, according to U.S. Pat. No. 5,463,116; cited from earlier work

In the case of `CC(C)[C@H]1CC[C@H](C(=O)N[C@H](Cc2ccccc2)C(=O)O)CC1` [Form Phi, nateglinide ammonium salt], the solubility [1] was “relatively insoluble”.

In the case of `CC(C)[C@H]1CC[C@H](C(=O)N[C@H](Cc2ccccc2)C(=O)O)CC1` [nateglinide, (−)-N-(trans-4-isoporpylcyclohexanecarbonyl)-D-Phenylalanine], the solubility ([2]; in acetonitrile) is given as “sparingly soluble”, the solubility ([2]; in chloroform) is given as “freely soluble” and the solubility ([2]; in ethanol) is given as “freely soluble”. For the same compound, the solubility ([2]; in ether) was “soluble”, the solubility ([2]; in methanol) was “freely soluble” and the solubility ([2]; in octanol) was “sparingly soluble”. For the same compound, the solubility ([2]; in water) was “practically insoluble” and the solubility ([2]; in water, listed as Nateglinide) was “insoluble”.

For `CC(C)[C@H]1CC[C@H](C(=O)N[C@H](Cc2ccccc2)C(=O)O)CC1` [B-type, nateglinide], the “stability of crystal form during grinding” value [3] is listed as “unstable and susceptible to change during grinding”.
